# Source: paper PMC9144902, “Metal(II) Complexes of the Fluoroquinolone Fleroxacin: Synthesis, Characterization and Biological Profile” (Pharmaceutics, 2022)
# Experiments:
# [1] = system: Bacillus subtilis ATCC 6633; assay: Antimicrobial activity, MIC determination; format: cell-based; conditions: B. subtilis; 24-h incubation, 37°C
# In short: (§1)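 Broth microdilution MIC in Mueller–Hinton broth, inoculum 0.5 McFarland, compounds added from DMSO working solutions at 2:98. After 24 h (37°C; X. campestris at 28°C), MIC is the lowest concentration inhibiting visible growth, by OD600 turbidity, in at least two of triplicate cultures.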
# [2] = system: Staphylococcus aureus ATCC 6538; assay: Antimicrobial activity, MIC determination; format: cell-based; conditions: S. aureus; 24-h incubation, 37°C
# [3] = system: Xanthomonas campestris ATCC 1395; assay: Antimicrobial activity, MIC determination; format: cell-based; conditions: X. campestris; 24-h incubation, 28°C
# In short: as §1
# EB–DNA adduct (CT DNA) = assay: Competitive study with EB (EB–DNA fluorescence quenching); format: binding, calf; conditions: for Ksv, Stern–Volmer constant: EB–DNA adduct; for ΔI/Io, percentage of EB–DNA fluorescence quenching: [EB] = 20 μM, [DNA] = 26 μM, λexc 540 nm, λem 592 nm; for EB–DNA relative fluorescence emission intensity, % of the initial (I/Io): λemission = 592 nm, final value (up to), Figure S14; for kq, EB–DNA quenching constant: τo = 23 ns
Compound,MIC [1] [µg/mL],MIC (values in parentheses) [1] [µM],MIC [2] [µg/mL],MIC (values in parentheses) [2] [µM],MIC [3] [µg/mL],MIC (values in parentheses) [3] [µM],"Ksv, Stern–Volmer constant (EB–DNA adduct (CT DNA))","ΔI/Io, percentage of EB–DNA fluorescence quenching (EB–DNA adduct (CT DNA)) [%]","EB–DNA relative fluorescence emission intensity, % of the initial (I/Io) (EB–DNA adduct (CT DNA)) [%]","kq, EB–DNA quenching constant (EB–DNA adduct (CT DNA))"
"CN1CCN(c2c(F)cc3c(=O)c(C(=O)[O-])cn(CCF)c3c2F)CC1.CN1CCN(c2c(F)cc3c(=O)c(C(=O)[O-])cn(CCF)c3c2F)CC1.[Ni+2].c1cnc2c(c1)ccc1cccnc12 [complex 19, [Ni(flrx)2(phen)]]",8,8.2,8,8.2,16,16.4,3.18(±0.14) × 10^5 M^–1,68.1,31.9,1.38(±0.05) × 10^13 M^−1s^−1
"CN1CCN(c2c(F)cc3c(=O)c(C(=O)[O-])cn(CCF)c3c2F)CC1.[Cl-].[Cu+2].c1cnc2c(c1)ccc1cccnc12 [complex 8, [Cu(flrx)(phen)Cl]]",8,12.3,8,12.3,8,12.3,3.25(±0.08) × 10^5 M^–1,66.4,33.6,1.41(±0.03) × 10^13 M^−1s^−1
"CN1CCN(c2c(F)cc3c(=O)c(C(=O)[O-])cn(CCF)c3c2F)CC1.CN1CCN(c2c(F)cc3c(=O)c(C(=O)[O-])cn(CCF)c3c2F)CC1.[Mn+2].c1cnc2c(c1)ccc1cccnc12 [complex 11, [Mn(flrx)2(phen)]]",8,8.2,8,8.2,16,16.4,1.83(±0.03) × 10^5 M^–1,76.7,23.3,7.94(±0.14) × 10^12 M^−1s^−1
"CN1CCN(c2c(F)cc3c(=O)c(C(=O)[O-])cn(CCF)c3c2F)CC1.CN1CCN(c2c(F)cc3c(=O)c(C(=O)[O-])cn(CCF)c3c2F)CC1.[Co+2].c1ccc(-c2ccccn2)nc1 [complex 15, [Co(flrx)2(bipy)]]",8,8.4,4,4.2,16,16.8,4.69(±0.09) × 10^5 M^–1,80.4,19.6,2.04(±0.04) × 10^13 M^−1s^−1
"CN1CCN(c2c(F)cc3c(=O)c(C(=O)[O-])cn(CCF)c3c2F)CC1.[Cl-].[Cu+2].c1ccc(-c2ccccn2)nc1 [complex 6, [Cu(flrx)(bipy)Cl]]",8,12.8,4,6.4,8,12.8,2.03(±0.05) × 10^5 M^–1,61.9,38.1,8.84(±0.21) × 10^12 M^−1s^−1
"CN1CCN(c2c(F)cc3c(=O)c(C(=O)[O-])cn(CCF)c3c2F)CC1.CN1CCN(c2c(F)cc3c(=O)c(C(=O)[O-])cn(CCF)c3c2F)CC1.CO.CO.[Ni+2] [complex 5, [Ni(flrx)2(MeOH)2]]",4,4.6,4,4.6,16,18.6,2.33(±0.08) × 10^5 M^–1,56.9,43.1,1.01(±0.03) × 10^13 M^−1s^−1
"CN1CCN(c2c(F)cc3c(=O)c(C(=O)[O-])cn(CCF)c3c2F)CC1.CN1CCN(c2c(F)cc3c(=O)c(C(=O)[O-])cn(CCF)c3c2F)CC1.[Co+2].c1cnc2c(c1)ccc1cccnc12 [complex 17, [Co(flrx)2(phen)]]",8,8.0,8,8.0,16,16.0,3.56(±0.10) × 10^5 M^–1,69.8,30.2,1.55(±0.05) × 10^13 M^−1s^−1
"CN1CCN(c2c(F)cc3c(=O)c(C(=O)[O-])cn(CCF)c3c2F)CC1.CN1CCN(c2c(F)cc3c(=O)c(C(=O)[O-])cn(CCF)c3c2F)CC1.[Mn+2].c1ccc(-c2ccccn2)nc1 [complex 9, [Mn(flrx)2(bipy)]]",8,8.4,8,8.4,16,16.9,3.31(±0.07) × 10^5 M^–1,73.8,26.2,1.44(±0.03) × 10^13 M^−1s^−1
